Source: patent US7074765B2, “Synthetic peptide analogs of Arg-Pro-Pro-Gly-Phe as selective inhibitors of thrombin and thrombin activation of protease activated receptors 1 and 4” (The Regents of the University of Michigan, priority 2003, dated 2006)

How the values were obtained:
Assay type in all cases: biochemical
[1] = tested on: normal human citrated plasma; assay: activated partial thromboplastin time (APTT); settings: normal human plasma; p<0.05
Protocol: The influence of the various peptide formulations used in the present invention on established coagulation-based assays was determined. The activated partial thromboplastin time (APTT) is performed by mixing 0.05 ml normal human citrated plasma with 0.05 ml activated partial thromboplastin reagent purchased from Organon Teknika, Research Triangle Park, N.C. in the absence or presence of a peptide inhibitor. After incubation for 5 min at 37° C., the mixture is recalcified with 0.05 ml of 30 mM calcium chloride and the time to clot formation is measured in an Amelung KC4A instrument (Sigma Chemical Corp, St. Louis, Mo.) (Hasan et al. Thrombosis and Haemostasis. 82, 1182–1187 (1999)). The prothrombin time (PT) is performed by mixing 0.05 ml normal human citrated plasma with 0.05 ml Simplastin (Organon Teknika, Research Triangle Park, N.C.) followed by incubation for 3 min at 37° C. in the absence or presence of a peptide inhibitor. At the addition of 0.05 ml of 30 mM calcium chloride, the time to clot formation is measured in an KC4A instrument (Sigma Chemical Corp, St. Louis, Mo.) (Hasan et al. Thrombosis and Haemostasis. 82, 1182–1187 (1999)). The thrombin clotting time (TCT) is performed by adding 0.1 ml normal human citrated plasma in the absence or presence of a peptide inhibitor and 0.05 ml of a α-thrombin solution such that the final concentration of the thrombin in the entire mixture was 1 nM. Upon addition of the thrombin, the time to clot formation is measured in an KC4A instrument (Sigma Chemical Corp, St. Louis, Mo.). In FIG. 5, peptide TH146 produces a significant prolongation (p<0.05) of the activated partial thromboplastin time at 15 μM, of the prothrombin time at 60 μM, and the thrombin clotting time at 15 μM. In FIG. 6, peptide MAP4-TH146 produced a significant prolongation (p<0.05) of the activated partial thromboplastin time at 0.195 μM, of the prothrombin time at 3.125 μM, and the thrombin clotting time at 0.39 μM.

[2] = target: T1, thrombocytin cleavage of recombinant human PAR1 extracellular domain (Homo sapiens, UniProt P25116); assay: Inhibition of thrombocytin-induced cleavage of rPAR1EC; settings: 16.7 nM thrombocytin, 45 min, 37° C.; below concentration that blocks the enzyme's proteolytic activity
T1 construct: A portion of the extracellular domain of human PAR1 (Ala^26-Ser^99) (rPAR1EC) was expressed in Escherichia coli; His10-DDDDK (pET19b) (N); made in house; host or cells: E. coli BL21(DE3), pET19b (rPAR1EC)
T1 sequence (P25116 26-99): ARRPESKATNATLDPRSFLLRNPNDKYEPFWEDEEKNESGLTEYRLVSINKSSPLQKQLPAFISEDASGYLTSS
Protocol: Thrombocytin is a snake venom enzyme that activates platelets by cleaving PAR1 at the thrombin cleavage site (Santos et al., FEBS Letters. 18, 3570–3577 (2000)). […] The ability of MAP4-rOicPGF to block thrombocytin cleavage of rPAR1EC was performed as follows. One μg of rPAR1EC in 0.01 mM Tris-HCL, 0.2 M NaCl, pH 8.0 was incubated at 37° C. for 15 min or 45 min with 1 nM of α-thrombin or 0.5 μg/mL thrombocytin (16.7 nM), respectively, in the absence or presence of 0.025 to 1 mM MAP4-rOicPGF. The reaction mixture was separated on SDS-PAGE and stained with Coomassie Brilliant Blue. The cleaved gel images were scanned using the software Scion Image, ScionCorp, Frederick, Md.

α-thrombin = α-thrombin (Homo sapiens, UniProt P00734); assay: α-thrombin hydrolysis of chromogenic substrate Sar-Pro-Arg-pNA; settings: 1 nM α-thrombin; 0–0.5 mM peptide
Protocol: FIG. 10 examines the ability of MAP4-TH146 (β-Ala-Lys-2Lys-4(D-Arg-Oic-Pro-Gly-Phe)) to block thrombin or thrombocytin-induced proteolysis of recombinant extracellular fragment of human PAR1 (rPAR1EC). In the upper Panels, 1 μg of rPAR1EC in 10 mM Tris-HCI, 200 mM NaCl, pH 8.0 was incubated at 37° C. for 15 min or 45 min with 1 nM α-thrombin or 0.5 μg/ml (16.7 nM) thrombocytin, respectively, in the absence or presence of increasing concentrations of MAP4-TH146 (0.05 to 1.0 mM)). In the middle Panel, the ability of α-thrombin (1 nM) to hydrolyze the chromogenic substrate Sar-Pro-Arg-pNA in the presence or absence of 0–0.5 mM MAP4-TH146 was determined. In the bottom Panel, the ability of thrombocytin (16.7 nM) to hydrolyze 1 mM H-D-Phe-Pip-Arg-paranitroanilide (S2238) in the presence or absence of 0–1.0 mM MAP4-TH146 was determined. […] Alternatively, in the bottom Panel, MAP4-TH146 inhibits thrombocytin proteolysis of rPAR1EC at concentrations below that necessary to block the proteolytic activity of the enzyme.

β-Ala-Lys-2Lys-4(D-Arg-Oic-Pro-Gly-Phe) [MAP4-rOicPGF]
concentration giving significant prolongation of the APTT [1]: 0.195 µM | concentration that blocks thrombocytin cleavage of rPAR1EC [2]: 0.2 mM | effect on α-thrombin hydrolysis of Sar-Pro-Arg-pNA (α-thrombin): directly blocking α-thrombin's proteolytic activity
